“And” between values parts separate entries of the source, which are not always exact repeats. Identical values can stand only once. Like-named read-outs stand apart in the source and are kept apart here.
Tests used:
[1] = format: physicochemical; set-up: key to Fibril / Fibril Formation / TEM 2cat / Fibril: 1 = fibrils present; 0 non-fibrillar structures; conditions: for Fibril / Fibril Formation: 1 mg/mL, uranyl acetate stain, qualitative
[2] = β-sheet content by ATR-FT-IR; format: physicochemical; conditions: for b -sheet / %: Fig. S7 panel A, β-sheet content by ATR-FT-IR
Description: For ATR FT–IR spectroscopy measurements, 200 µL of the respective 1 mg/mL PNF solution was lyophilized and the resulting powder used for measurement. All spectra were recorded on a Bruker Tensor 27 spectrometer with a diamond crystal as ATR element (PIKE MiracleTM, spectral resolution 2 cm^-1). Every sample was measured with 64 scans. Data were analyzed with OriginLab software and calculation of β–sheet content was conducted according to a previous report. TEM. For TEM measurements 5 µL of PNF fibrils (1 mg/mL) were placed on copper grids coated with carbon and formvar layer (300 mesh, Plano GmbH). After 10 min incubation time, the grids were staining with 4% uranyl acetate solution for 2.5 min and washed with water. Measurements were performed on a Jeol 1400 electron microscope with 120 kV acceleration voltage. CR Assay. For the determination of the amount of peptide monomer converting into nanostructures the amine reactive dye fluorescamine was used analogous to a previous reported protocol. Briefly, 100 µL of the preformed PNF solution was centrifuged in a Vivaspin 500 tube (3 kDa MWCO) to separate fibers from free peptide monomer (16200 x g, 4 °C, 45 min). The filtrate and 100 μL of the non-filtered PNF sample were lyophilized and dissolved in 30 μL DMSO. 10 μL of the filtrate and non-filtered DMSO samples were submitted in a black UV Star® 384 microliter well–plates (Greiner bio–one) and 3 μL of the fluorescamine solution (10 mg/mL, DMSO) was added to measure the fluorescence enhancement. After 20 min of incubation at RT, fluorescence was recorded on an Infinite® M1000 PRO microplate reader (Tecan) at λem = 470 nm upon excitation at λex = 365 nm with 10 nm bandwidths and multiple reads per well (3×3). Measurements were repeated in triplicates and averaged with standard deviation. All values were calculated as n-fold fluorescence enhancement (DMSO only as a reference was set to 1). The conversion rate CR was defined according to the equation Eq. (3).3 CR=100−100×fluorescenceintensityfiltrate/fluorescenceintensityoriginal[%]

[3] = Zeta-potential measurement; format: physicochemical
Outline: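 Readout: zeta potential (mV) derived by Smoluchowski from measured electrophoretic mobility. Preformed aggregates (1 mg/mL peptide, PBS pH 7.4, RT for 1 d) were diluted into dilute KCl electrolyte (1 mM) shortly before analysis.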

[4] = Turbidity, derived count rate of scattered light; format: physicochemical; conditions: for Count Rate / kcps: derived count rate of scattered light at 633 nm, 173°, from zeta-potential measurement, 0.1 mg/mL in 1 mM KCl after 1 d at 1 mg/mL in PBS, turbidity / microscopic aggregation, mean of triplicate
Outline: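 Samples: 1 mg/mL in PBS pH 7.4 (from DMSO), 1 d at RT, then diluted in 1 mM KCl immediately before measurement. Triplicates, two independent runs averaged.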

[5] = Turbidity, derived count rate of scattered light; format: physicochemical; conditions: for Count Rate: derived count rate of scattered light (turbidity); for Log10 Count Rate: turbidity, derived count rate of scattered light, data of Figure 2D
[6] = TEM, 1 = fibrils present, 0 = non-fibrillar
[7] = TEM, 1 = fibrils present, 0 = non-fibrillar structures
[8] = category: fibrils present or non-fibrillar
[9] = zeta-potential of peptide, source data of Figure 2C
[10] = zeta-potential of the peptide assemblies, mean, Figure 3A source data
[11] = Log10 of derived count rate of scattered light (turbidity)
[12] = turbidity, Log10 of derived count rate of scattered light, Figure 3A source data
[13] = turbidity, log10 of derived count rate of scattered light
[14] = FigS12 panel A, fibril category by TEM
[15] = logarithm of count rate in kcps
[16] = Fig S10 panel D, fibril category by TEM
[17] = zeta potential of peptide assemblies
[18] = log10 of derived count rate of scattered light (turbidity)

For QCKFKQFFNMWQ, the “TEM 2cat” value ([1]; Fig S10 panel D) was 1, the Fibril ([1]; Fig S10 panel E) was 1 and the “Fibril / Fibril Formation” value ([1]; TEM) was 1. The Fibril [1, 6] was 1, the Fibril [1, 7] was 1 and the “TEM 2cat” value [1, 8] was 1. For the same substance, the “b -sheet / %” value [2] was 41.78%, the Zeta-Pot. [3] was 9.587 and the “Zeta-Potential / mV” value [3, 9] was 11.04 mV. The “Zeta-Potential / mV” value [3, 10] was 9.59 mV, the “Log10 Count Rate” value [4, 11] was 4.277 and the “Count Rate / kcps” value [4] was 18911 kcps. For the same substance, the “Log10 Count Rate” value [4, 12] was 4.277, the “Log10 Count Rate” value [4, 13] was 4.277 and the “Count Rate” value [5] was 18911.36667. For the same substance, the “Log10 Count Rate” value [5] was 4.277.

In the case of QCKAKAQANMWQ, the “TEM 2cat” value ([1]; Fig S10 panel D) is reported as 0, the Fibril ([1]; Fig S10 panel E) is reported as 0 and the “TEM 2cat” value [1, 14] is reported as 0. The Fibril ([1]; FigS12 panel B, TEM) was 0, the “Fibril / Fibril Formation” value ([1]; TEM) was 0 and the Fibril [1, 6] was 0. The Fibril [1, 7] was 0, the ß-sheet / % ([2]; ATR-FT-IR of lyophilised 1 mg/mL PNF solution, peak integral ratio 1625-1635 cm-1, measured once) was 33% and the “b -sheet / %” value [2] was 32.8999%. For the same substance, the Zeta-Pot. [3] was -8.05, the “Zeta pot. / mV” value ([3]; 1 mg/mL in PBS pH 7.4 from 10 mg/mL DMSO stock, 1 d RT, 60 µL diluted in 600 µL 1 mM KCl, Zetasizer Nano ZS, Smoluchowski, mean of triplicate) was -8.1 mV and the “Zeta-Potential / mV” value [3, 9] was -4.813 mV. The “Zeta-Potential / mV” value [3, 10] was -8.05 mV, the “Log10 Count Rate” value [4, 11] was 2.631 and the “Count Rate / kcps” value [4] was 428 kcps. For the same substance, the “Log10 Count Rate” value [4, 15] was 2.6, the “Log10 Count Rate” value [4, 12] was 2.631 and the “Log10 Count Rate” value [4, 13] was 2.631. The “Count Rate” value [5] was 427.5 and the “Log10 Count Rate” value [5] was 2.631.

For HHHHKAKAKAKAYYYY, the “TEM 2cat” value [1, 16] was 0, the “TEM 2cat” value [1, 14] was 0 and the Fibril ([1]; FigS12 panel B, TEM) was 0. For the same substance, the “Fibril / Fibril Formation” value ([1]; TEM) was 0, the Fibril [1, 6] was 0 and the Fibril [1, 7] was 0. For the same substance, the “b -sheet / %” value [2] was 44.29%, the Zeta-Pot. [3, 17] was 7.03 and the “Zeta-Potential / mV” value [3, 9] was 4.787 mV. For the same substance, the “Zeta-Potential / mV” value [3, 10] was 7.03 mV, the “Log10 Count Rate” value [4, 11] was 2.382 and the “Count Rate / kcps” value [4] was 241 kcps. For the same substance, the “Log10 Count Rate” value [4, 18] was 2.382, the “Log10 Count Rate” value [4, 12] was 2.382 and the “Count Rate” value [5] was 240.9. The “Log10 Count Rate” value [5] was 2.382.

With KIKIQII the “TEM 2cat” value [1, 16] was 1, the “TEM 2cat” value [1, 14] was 1 and the Fibril ([1]; FigS12 panel B, TEM) was 1. For the same substance, the “Fibril / Fibril Formation” value ([1]; TEM) was 1, the Fibril [1, 6] was 1 and the Fibril [1, 7] was 1. For the same substance, the “b -sheet / %” value [2] was 44.64%, the Zeta-Pot. [3, 17] was 5.61 and the “Zeta-Potential / mV” value [3, 9] was 6.302 mV. The “Zeta-Potential / mV” value [3, 10] was 5.61 mV, the “Log10 Count Rate” value [4, 11] was 3.017 and the “Count Rate / kcps” value [4] was 1039 kcps. For the same substance, the “Log10 Count Rate” value [4, 18] was 3.017, the “Log10 Count Rate” value [4, 12] was 3.017 and the “Count Rate” value [5] was 1039. For the same substance, the “Log10 Count Rate” value [5] was 3.017.

With CKFKQFFNM the “TEM 2cat” value ([1]; Fig S10 panel D) was 1, the “Fibril / Fibril Formation” value ([1]; TEM) was 1 and the Fibril [1, 6] was 1. For the same substance, the Fibril [1, 7] was 1, the “TEM 2cat” value [1, 8] was 1 and the “b -sheet / %” value [2] was 41.58%. For the same substance, the Zeta-Pot. [3] was 15.2, the “Zeta-Potential / mV” value [3, 9] was 15.05 mV and the “Zeta-Potential / mV” value [3, 10] was 15.2 mV. The “Log10 Count Rate” value [4, 11] was 4.436, the “Count Rate / kcps” value [4] was 27264 ± 5488 kcps and 27264 kcps and the “Log10 Count Rate” value [4, 15] was 4.436. For the same substance, the “Log10 Count Rate” value [4, 12] was 4.436, the “Log10 Count Rate” value [4, 13] was 4.436 and the “Count Rate” value [5] was 27264.3. For the same substance, the “Log10 Count Rate” value [5] was 4.436.

For RGDKIKIQINMWQ, the “TEM 2cat” value [1, 16] was 1, the Fibril ([1]; Fig S10 panel E) was 1 and the “Fibril / Fibril Formation” value ([1]; TEM) was 1. The Fibril [1, 6] was 1, the Fibril [1, 7] was 1 and the “TEM 2cat” value [1, 8] was 1. The “b -sheet / %” value [2] was 49.07%, the Zeta-Pot. [3, 17] was 6.59 and the “Zeta-Potential / mV” value [3, 9] was 11.21 mV. The “Zeta-Potential / mV” value [3, 10] was 6.59 mV, the “Log10 Count Rate” value [4, 11] was 3.1914 and the “Count Rate / kcps” value [4] was 1554 kcps. For the same substance, the “Log10 Count Rate” value [4, 18] was 3.1914, the “Log10 Count Rate” value [4, 12] was 3.1914 and the “Count Rate” value [5] was 1554. For the same substance, the “Log10 Count Rate” value [5] was 3.1914.

With CQFQFQF the “TEM 2cat” value [1, 16] was 1, the “Fibril / Fibril Formation” value ([1]; TEM) was 1 and the Fibril [1, 6] was 1. For the same substance, the Fibril [1, 7] was 1, the “TEM 2cat” value [1, 8] was 1 and the “b -sheet / %” value [2] was 34.9%. For the same substance, the Zeta-Pot. [3, 17] was -24.8, the “Zeta-Potential / mV” value [3, 9] was -25.37 mV and the “Zeta-Potential / mV” value [3, 10] was -24.8 mV. The “Log10 Count Rate” value [4, 11] was 3.899, the “Count Rate / kcps” value [4] was 7929 kcps and the “Log10 Count Rate” value [4, 18] was 3.899. For the same substance, the “Log10 Count Rate” value [4, 15] was 3.899, the “Log10 Count Rate” value [4, 12] was 3.899 and the “Count Rate” value [5] was 7929. The “Log10 Count Rate” value [5] was 3.899.

With KIKIKIKI the “TEM 2cat” value [1, 16] was 0, the “TEM 2cat” value [1, 14] was 0 and the Fibril ([1]; FigS12 panel B, TEM) was 0. For the same substance, the “Fibril / Fibril Formation” value ([1]; TEM) was 0, the Fibril [1, 6] was 0 and the Fibril [1, 7] was 0. The “b -sheet / %” value [2] was 40.46%, the Zeta-Pot. [3, 17] was 5.46 and the “Zeta-Potential / mV” value [3, 9] was 5.997 mV. The “Zeta-Potential / mV” value [3, 10] was 5.46 mV, the “Log10 Count Rate” value [4, 11] was 2.191 and the “Count Rate / kcps” value [4] was 155 kcps. The “Log10 Count Rate” value [4, 18] was 2.191, the “Log10 Count Rate” value [4, 12] was 2.191 and the “Count Rate” value [5] was 155.1. For the same substance, the “Log10 Count Rate” value [5] was 2.191.

In the case of KFKFQFNM, the “TEM 2cat” value ([1]; Fig S10 panel D) is reported as 1, the Fibril ([1]; Fig S10 panel E) is reported as 1 and the “Fibril / Fibril Formation” value ([1]; TEM) is reported as 1. For the same substance, the Fibril [1, 6] was 1, the Fibril [1, 7] was 1 and the “TEM 2cat” value [1, 8] was 1. The “b -sheet / %” value [2] was 40.31%, the Zeta-Pot. [3] was 13.9 and the “Zeta-Potential / mV” value [3, 9] was 18.4 mV. The “Zeta-Potential / mV” value [3, 10] was 13.9 mV, the “Log10 Count Rate” value [4, 11] was 2.12 and the “Count Rate / kcps” value [4] was 132 kcps. The “Log10 Count Rate” value [4, 12] was 2.12, the “Log10 Count Rate” value [4, 13] was 2.12 and the “Count Rate” value [5] was 131.8. The “Log10 Count Rate” value [5] was 2.12.

— paper PMC10447463, “Data-mining unveils structure–property–activity correlation of viral infectivity enhancing self-assembling peptides” (Nature Communications, 2023)
